Experimental data: patent US12338243B2, “P2X7 modulators” (JANSSEN PHARMACEUTICA NV, priority 2014, dated 2025)
“And” between values parts separate entries of the source, which are not always exact repeats. Equal values may be shown once.

Legend:
[1] = Biodistribution studies of radiotracer in healthy female Wistar rats; format: in vivo; conditions: for % ID blood: blood mass assumed 7% of body mass; for SUV blood / % ID carcass / % ID cerebellum / SUV cerebellum / % ID cerebrum / SUV cortex / % ID heart / SUV hippocampus / % ID intestines / % ID kidneys / % ID liver / % ID lungs / SUV rest of cerebrum / % ID spleen + pancreas / % ID stomach / SUV striatum / % ID urine / SUV whole cerebrum: mean ± SD, n = 3
Procedure: (§1) HPLC analysis was performed on a LaChrom Elite HPLC system (Hitachi, Armstadt, Germany) connected to a UV spectrometer set at 220 nm. For the analysis of radiolabeled compounds, the HPLC eluate, after passage through the UV detector, was led over a shielded 3-inch NaI(Tl) scintillation detector connected to a multichannel analyser (Gabi box, Raytest, Straubenhardt, Germany). The output signal was recorded and analysed using a GINA Star data acquisition system (Raytest, Straubenhardt, Germany). Radioactivity in samples of biodistribution studies, cell uptake experiments and radiometabolite analysis was quantified using an automated gamma counter equipped with a 3-inch NaI(Tl) well crystal coupled to a multichannel analyser (Wallac 2480 Wizard, Wallac, Turku, Finland). Results were corrected for background radiation, physical decay and counter dead time.
Animals were housed in individually ventilated cages in a thermoregulated (˜22° C.), humidity-controlled facility under a 12 h/12 h light/dark cycle with access to food and water ad libitum. All animal experiments were conducted according to the Belgian code of practice for the care and use of animals, after approval from the KU Leuven University Ethics Committee for Animals.
The biodistribution studies were performed in healthy female Wistar rats (body weight, 185-220 g) at 2, 30 and 60 min after tracer injection (n=3/time point). […] The animals were sacrificed by decapitation at the indicated time points. Blood and major organs were collected in tared tubes and weighed. The radioactivity in the dissected organs and blood was counted using an automated gamma counter. For calculation of total blood radioactivity, blood mass was assumed to be 7% of the body mass.

[2] = Rat plasma radiometabolite analysis; format: in vivo; conditions: 30 min after radiotracer injection, n=2
Procedure: as §1
Radiometabolites of [^11C]55 in plasma of normal female Wistar rats (n=2) were quantified at 30 min after tracer injection. […] The fraction of more lipophilic radiometabolites eluting after the intact tracer was negligible (<1.5%).

For `C[C@H]1Cn2c(nnc2-c2cc(O[11CH3])ccn2)CN1C(=O)c1cccc(Cl)c1Cl` [[^11C]55, (S)-(2,3-dichlorophenyl)(3-(4-[^11C]methoxypyridin-2-yl)-6-methyl-5,6-dihydro-[1,2,4]triazolo[4,3-a]pyrazin-7(8H)-yl)methanone], the “% ID blood” value ([1]; 2 min after tracer injection) was 10.0 % ID and 10.0 ± 2.4 % ID, the SUV blood ([1]; 2 min after tracer injection) was 1.42 ± 0.3 and the “% ID blood” value ([1]; 30 min after tracer injection) was 5.2 ± 0.6 % ID. The SUV blood ([1]; 30 min after tracer injection) was 0.74 ± 0.1, the “% ID blood” value ([1]; 60 min after tracer injection) was 5.3 % ID and 5.3 ± 0.6 % ID and the SUV blood ([1]; 60 min after tracer injection) was 0.75 ± 0.1. For the same compound, the “% ID carcass” value ([1]; 2 min after tracer injection) was 35.1 ± 4.1 % ID, the “% ID carcass” value ([1]; 30 min after tracer injection) was 46.9 ± 0.5 % ID and the “% ID carcass” value ([1]; 60 min after tracer injection) was 43.2 ± 5.3 % ID. The “% ID cerebellum” value ([1]; 2 min after tracer injection) was 0.1 ± 0.0 % ID, the SUV cerebellum ([1]; 2 min after tracer injection) was 1.02 ± 0.1 and the “% ID cerebellum” value ([1]; 30 min after tracer injection) was 0.1 ± 0.0 % ID. For the same compound, the SUV cerebellum ([1]; 30 min after tracer injection) was 0.53 ± 0.0, the “% ID cerebellum” value ([1]; 60 min after tracer injection) was 0.1 ± 0.0 % ID and the SUV cerebellum ([1]; 60 min after tracer injection) was 0.59 ± 0.1. For the same compound, the “% ID cerebrum” value ([1]; 2 min after tracer injection) was 0.5 ± 0.0 % ID, the “% ID cerebrum” value ([1]; 30 min after tracer injection) was 0.3 ± 0.0 % ID and the “% ID cerebrum” value ([1]; 60 min after tracer injection) was 0.3 ± 0.1 % ID. The SUV cortex ([1]; 2 min after tracer injection) was 0.80 ± 0.2, the SUV cortex ([1]; 30 min after tracer injection) was 0.58 ± 0.1 and the SUV cortex ([1]; 60 min after tracer injection) was 0.65 ± 0.1. For the same compound, the “% ID heart” value ([1]; 2 min after tracer injection) was 1.3 ± 0.2 % ID, the “% ID heart” value ([1]; 30 min after tracer injection) was 0.4 ± 0.0 % ID and the “% ID heart” value ([1]; 60 min after tracer injection) was 0.4 ± 0.1 % ID. The SUV hippocampus ([1]; 2 min after tracer injection) was 0.74 ± 0.0, the SUV hippocampus ([1]; 30 min after tracer injection) was 0.43 ± 0.0 and the SUV hippocampus ([1]; 60 min after tracer injection) was 0.52 ± 0.1. The “% ID intestines” value ([1]; 2 min after tracer injection) was 14.0 ± 1.8 % ID, the “% ID intestines” value ([1]; 30 min after tracer injection) was 23.8 ± 1.1 % ID and the “% ID intestines” value ([1]; 60 min after tracer injection) was 26.7 ± 9.1 % ID. The “% ID kidneys” value ([1]; 2 min after tracer injection) was 4.5 ± 0.8 % ID, the “% ID kidneys” value ([1]; 30 min after tracer injection) was 1.9 ± 0.1 % ID and the “% ID kidneys” value ([1]; 60 min after tracer injection) was 1.8 ± 0.2 % ID. For the same compound, the “injected dose retained in the liver and the intestines” value ([1]; liver and intestines, 60 min after tracer injection) was 43.8%, the “% ID liver” value ([1]; 2 min after tracer injection) was 34.8 ± 2.1 % ID and the “% ID liver” value ([1]; 30 min after tracer injection) was 19.4 ± 0.5 % ID. The “% ID liver” value ([1]; 60 min after tracer injection) was 17.1 ± 0.3 % ID, the “% ID lungs” value ([1]; 2 min after tracer injection) was 2.1 ± 0.3 % ID and the “% ID lungs” value ([1]; 30 min after tracer injection) was 1.0 ± 0.1 % ID. The “% ID lungs” value ([1]; 60 min after tracer injection) was 1.1 ± 0.4 % ID, the “SUV rest of cerebrum” value ([1]; 2 min after tracer injection) was 0.86 ± 0.0 and the “SUV rest of cerebrum” value ([1]; 30 min after tracer injection) was 0.46 ± 0.0. For the same compound, the “SUV rest of cerebrum” value ([1]; 60 min after tracer injection) was 0.53 ± 0.1, the “% ID spleen + pancreas” value ([1]; 2 min after tracer injection) was 1.4 ± 0.4 % ID and the “% ID spleen + pancreas” value ([1]; 30 min after tracer injection) was 0.6 ± 0.1 % ID. For the same compound, the “% ID spleen + pancreas” value ([1]; 60 min after tracer injection) was 0.6 ± 0.1 % ID, the “% ID stomach” value ([1]; 2 min after tracer injection) was 1.7 ± 0.3 % ID and the “% ID stomach” value ([1]; 30 min after tracer injection) was 2.1 ± 1.0 % ID. The “% ID stomach” value ([1]; 60 min after tracer injection) was 5.1 ± 3.4 % ID, the SUV striatum ([1]; 2 min after tracer injection) was 0.78 ± 0.0 and the SUV striatum ([1]; 30 min after tracer injection) was 0.45 ± 0.0. The SUV striatum ([1]; 60 min after tracer injection) was 0.50 ± 0.1, the “total initial brain uptake” value ([1]; total brain, 2 min after injection) was 0.6% and the total brain uptake ([1]; total brain, 60 min after tracer injection) was 0.4%. The “% ID in urine and kidneys” value ([1]; urine and kidneys, 60 min after injection) was 2.9 % ID, the “% ID urine” value ([1]; 2 min after tracer injection) was 0.1 ± 0.1 % ID and the “% ID urine” value ([1]; 30 min after tracer injection) was 0.9 ± 0.0 % ID. For the same compound, the “% ID urine” value ([1]; 60 min after tracer injection) was 1.1 ± 0.5 % ID, the SUV whole cerebrum ([1]; 2 min after tracer injection) was 0.83 ± 0.0 and the SUV whole cerebrum ([1]; 30 min after tracer injection) was 0.46 ± 0.0. The SUV whole cerebrum ([1]; 60 min after tracer injection) was 0.54 ± 0.1 and the “recovered radioactivity in the plasma in the form of intact tracer” value [2] was 70±6%.
